Measured values: ChEMBL document CHEMBL1159242, “Studies on the inhibitory effects of caffeoylquinic acids on monocyte migration and superoxide ion production” (J Nat Prod, 1995)
Calls of active or inactive are those of the source. The calls are words filed in the database; no cut-off is given here.

Assays:
[1] = Cytotoxicity against human monocytes measured by LDH activity; format: cell-based; details: monocyte
Monocyte [2] = experiment: Inhibition of healthy human monocyte migration assessed as chemotactic index at 100 nM after 45 mins; format: functional, cell-based
Monocyte [3] = experiment: Inhibition of O2- radical production in zymosan-stimulated healthy human monocyte measured after 1 hr at 37 degC; format: functional, cell-based
Monocyte [4] = experiment: Inhibition of healthy human monocyte migration assessed as chemotactic index at 0.001 to 0.00001 pM; format: functional, cell-based
Monocyte [5] = experiment: Inhibition of O2- radical production in zymosan-stimulated healthy human monocyte assessed as inhibition H2O2 production after 1 hr at 37 degC; format: functional, cell-based
Monocyte [6] = experiment: Inhibition of O2- radical production in zymosan-stimulated healthy human monocyte assessed as increase in H2O production after 1 hr at 37 degC; format: functional, cell-based
Monocyte [7] = experiment: Inhibition of healthy human monocyte migration assessed as chemotactic index at 0.001 to 0.00001 pM after >45 mins; format: functional, cell-based
Monocyte [8] = experiment: Inhibition of healthy human monocyte migration assessed as chemotactic index at 0.1 pM after 45 mins; format: functional, cell-based
Monocyte [9] = experiment: Inhibition of O2- radical production in zymosan-stimulated healthy human monocyte measured after 45 mins at 37 degC; format: functional, cell-based
Monocyte [10] = experiment: Inhibition of healthy human monocyte migration assessed as chemotactic index at 0.01 nM after 45 mins; format: functional, cell-based

| Compound | Activity [1] | Activity (Monocyte [2]) | Activity (Monocyte [3]) | Activity (Monocyte [4]) | Activity (Monocyte [5]) | Activity (Monocyte [6]) | Activity (Monocyte [7]) | Activity (Monocyte [8]) | Activity (Monocyte [9]) | Activity (Monocyte [10]) |
| --- | --- | --- | --- | --- | --- | --- | --- | --- | --- | --- |
| O=C(/C=C/c1ccc(O)c(O)c1)O[C@@H]1C[C@](O)(C(=O)O)C[C@@H](OC(=O)/C=C/c2ccc(O)c(O)c2)[C@H]1OC(=O)/C=C/c1ccc(O)c(O)c1 | Non-toxic |  |  |  |  |  |  |  |  |  |
| O=C(/C=C/c1ccc(O)c(O)c1)O[C@H]1[C@H](O)C[C@](O)(C(=O)O)C[C@H]1OC(=O)/C=C/c1ccc(O)c(O)c1 | Non-toxic | inactive | Dose-dependent effect |  |  |  |  |  |  |  |
| O=C(/C=C/c1ccc(O)c(O)c1)O[C@@H]1C[C@](O)(C(=O)O)C[C@@H](OC(=O)/C=C/c2ccc(O)c(O)c2)[C@H]1O | Non-toxic |  | Dose-dependent effect | Active | Active | Active | inactive | Active | Active | Active |
